# Data taken from article PMC7835878, “A Selective Competitive Inhibitor of Aldehyde Dehydrogenase 1A3 Hinders Cancer Cell Growth, Invasiveness and Stemness In Vitro” (Cancers, 2021).
# T1: Aldehyde dehydrogenase 1A3 (ALDH1A3) (Homo sapiens, UniProt P47895)
# T1 sequence (P47895 2-512): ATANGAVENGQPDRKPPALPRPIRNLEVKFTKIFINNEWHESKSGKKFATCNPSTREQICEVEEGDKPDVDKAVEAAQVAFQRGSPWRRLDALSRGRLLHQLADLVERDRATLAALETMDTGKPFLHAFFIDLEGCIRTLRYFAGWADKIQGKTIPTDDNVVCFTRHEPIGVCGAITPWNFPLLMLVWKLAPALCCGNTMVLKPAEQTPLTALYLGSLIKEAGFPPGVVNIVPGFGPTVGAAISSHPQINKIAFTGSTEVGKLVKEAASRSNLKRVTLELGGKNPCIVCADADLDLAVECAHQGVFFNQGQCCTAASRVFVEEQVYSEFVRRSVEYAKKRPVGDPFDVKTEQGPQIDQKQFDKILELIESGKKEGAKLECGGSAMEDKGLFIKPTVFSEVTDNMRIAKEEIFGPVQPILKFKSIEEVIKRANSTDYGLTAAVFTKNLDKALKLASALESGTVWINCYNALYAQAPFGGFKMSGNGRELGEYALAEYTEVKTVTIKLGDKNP
# B1: human aldehyde dehydrogenase 1A3 (enzyme)
# chain: MATANGAVENGQPDRKPPALPRPIRNLEVKFTKIFINNEWHESKSGKKFATCNPSTREQICEVEEGDKPDVDKAVEAAQVAFQRGSPWRRLDALSRGRLLHQLADLVERDRATLAALETMDTGKPFLHAFFIDLEGCIRTLRYFAGWADKIQGKTIPTDDNVVCFTRHEPIGVCGAITPWNFPLLMLVWKLAPALCCGNTMVLKPAEQTPLTALYLGSLIKEAGFPPGVVNIVPGFGPTVGAAISSHPQINKIAFTGSTEVGKLVKEAASRSNLKRVTLELGGKNPCIVCADADLDLAVECAHQGVFFNQGQCCTAASRVFVEEQVYSEFVRRSVEYAKKRPVGDPFDVKTEQGPQIDQKQFDKILELIESGKKEGAKLECGGSAMEDKGLFIKPTVFSEVTDNMRIAKEEIFGPVQPILKFKSIEEVIKRANSTDYGLTAAVFTKNLDKALKLASALESGTVWINCYNALYAQAPFGGFKMSGNGRELGEYALAEYTEVKTVTIKLGDKNP
# notes: Aldehyde dehydrogenase 1A3 (ALDH1A3), human, recombinant; also called ALDH1A3; hALDH1A3; source: recombinant, purified
# Assays:
# [1] = molecular target: T1, Aldehyde dehydrogenase 1A3 (ALDH1A3); test: X-ray crystal structure of the complex with NR6 (protein preincubated with […] NAD+); assay type: binding
# [2] = molecular target: the molecule itself; test: crystal structure; ALDH1A3 at 8 mg/mL preincubated with 1 mM NAD+ and 300 uM NR6; sitting drop vapor diffusion, 2.4 M sodium malonate pH 7.0, 20 °C; space group P2(1)22(1), two molecules per asymmetric unit
Molecule,X-ray crystal structure of the complex with NR6 (protein preincubated with 1 mM) [1],binding result [2]
NC(=O)c1ccc[n+]([C@@H]2O[C@H](COP(=O)([O-])OP(=O)(O)OC[C@H]3O[C@@H](n4cnc5c(N)ncnc54)[C@H](O)[C@@H]3O)[C@@H](O)[C@H]2O)c1 [NAD+],both are bonded with one molecule of NAD^+ and one molecule of NR6,–
B1,–,binds
